Laboratory results reported in patent US8895733B2 (Novartis AG, priority 2010, dated 2014).
Structures can show the parent of a compound that is named as a salt.

What follows are compounds tested against T1, Nav 1.7 (Homo sapiens, UniProt Q15858) (assay: Whole-cell voltage clamp electrophysiology, automated patch clamp (marker c in Table of Examples)). Conditions: marker c = Automated patch clamp data; read-out: Nav 1.7 activity.
T1 construct: expressed in transfected cells
T1 sequence (Q15858 whole entry): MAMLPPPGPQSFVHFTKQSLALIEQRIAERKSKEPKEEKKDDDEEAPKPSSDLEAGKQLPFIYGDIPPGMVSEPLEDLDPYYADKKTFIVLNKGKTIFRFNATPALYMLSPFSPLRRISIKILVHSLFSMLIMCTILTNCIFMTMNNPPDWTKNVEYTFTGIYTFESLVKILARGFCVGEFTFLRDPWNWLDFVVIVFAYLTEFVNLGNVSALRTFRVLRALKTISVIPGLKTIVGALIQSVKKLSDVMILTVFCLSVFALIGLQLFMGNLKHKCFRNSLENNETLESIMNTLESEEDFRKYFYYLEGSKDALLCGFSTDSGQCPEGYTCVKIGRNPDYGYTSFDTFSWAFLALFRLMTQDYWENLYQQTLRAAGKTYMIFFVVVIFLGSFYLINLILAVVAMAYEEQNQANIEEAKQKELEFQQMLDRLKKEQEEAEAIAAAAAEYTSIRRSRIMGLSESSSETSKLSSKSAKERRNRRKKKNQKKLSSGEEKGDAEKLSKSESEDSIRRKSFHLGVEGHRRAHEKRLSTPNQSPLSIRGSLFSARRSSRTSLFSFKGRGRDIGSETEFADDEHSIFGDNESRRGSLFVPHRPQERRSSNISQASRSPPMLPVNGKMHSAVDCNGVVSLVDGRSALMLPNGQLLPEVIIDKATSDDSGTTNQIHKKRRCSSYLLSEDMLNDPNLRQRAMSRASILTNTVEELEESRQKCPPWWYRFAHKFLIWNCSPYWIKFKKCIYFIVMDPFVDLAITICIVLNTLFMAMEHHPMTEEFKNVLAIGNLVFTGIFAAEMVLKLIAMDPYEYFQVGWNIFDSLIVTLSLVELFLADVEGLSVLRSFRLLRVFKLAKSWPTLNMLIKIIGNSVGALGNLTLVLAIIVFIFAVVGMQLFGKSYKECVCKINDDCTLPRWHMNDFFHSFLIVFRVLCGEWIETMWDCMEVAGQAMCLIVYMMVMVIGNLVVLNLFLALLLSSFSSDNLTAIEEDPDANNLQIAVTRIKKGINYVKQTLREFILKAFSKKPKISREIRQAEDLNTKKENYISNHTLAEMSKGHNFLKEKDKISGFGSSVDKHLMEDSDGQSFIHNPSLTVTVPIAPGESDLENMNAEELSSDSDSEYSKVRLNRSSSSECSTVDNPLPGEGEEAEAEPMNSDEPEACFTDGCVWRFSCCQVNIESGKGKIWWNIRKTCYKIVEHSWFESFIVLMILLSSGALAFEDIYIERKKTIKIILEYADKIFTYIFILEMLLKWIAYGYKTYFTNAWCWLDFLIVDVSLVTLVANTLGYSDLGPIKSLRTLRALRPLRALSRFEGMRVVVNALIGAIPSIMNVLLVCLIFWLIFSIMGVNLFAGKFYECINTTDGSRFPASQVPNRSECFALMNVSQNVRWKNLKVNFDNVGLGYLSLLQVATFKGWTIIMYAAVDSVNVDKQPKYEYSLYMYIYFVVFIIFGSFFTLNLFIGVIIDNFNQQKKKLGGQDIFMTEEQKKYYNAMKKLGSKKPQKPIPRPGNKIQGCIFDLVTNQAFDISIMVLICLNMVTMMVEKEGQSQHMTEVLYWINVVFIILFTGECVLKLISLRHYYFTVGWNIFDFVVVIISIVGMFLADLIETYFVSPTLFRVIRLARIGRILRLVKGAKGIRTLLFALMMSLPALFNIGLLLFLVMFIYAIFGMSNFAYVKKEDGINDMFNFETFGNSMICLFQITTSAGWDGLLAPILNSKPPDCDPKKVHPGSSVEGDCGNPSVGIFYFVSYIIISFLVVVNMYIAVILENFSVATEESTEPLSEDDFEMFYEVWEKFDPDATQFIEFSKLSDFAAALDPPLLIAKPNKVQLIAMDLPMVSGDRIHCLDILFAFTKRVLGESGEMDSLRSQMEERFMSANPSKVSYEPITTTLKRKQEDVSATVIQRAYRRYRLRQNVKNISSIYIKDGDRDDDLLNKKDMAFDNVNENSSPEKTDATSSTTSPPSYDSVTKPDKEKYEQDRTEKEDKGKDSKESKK
Assay type: cell-based
In short: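 A voltage protocol weighted toward inactivated-state block was used to test compounds on stably expressing cells, with pulses from −65 mV holding to −10 mV test and −100 mV. Currents came from whole-cell automated patch-clamp recordings, either IonWorks Quattro or other automated instruments, usually in perforated-patch mode.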
An IC50 of 9.02 µM was found for `Nc1nc(Nc2ccc(F)c(Cl)c2)nc(-c2noc(-c3ccc(OCC(F)(F)F)nc3)n2)n1` [Example 413, 2-N-(3-Chloro-4-fluorophenyl)-6-{5-[6-(2,2,2-trifluoroethoxy)pyridin-3-yl]-1,2,4-oxadiazol-3-yl}-1,3,5-triazine-2,4-diamine] in this work. An IC50 of 0.41 µM was found for `CN(c1ccc(F)c(Cl)c1)c1nc(N)nc(-c2noc(-c3ccc(OCC(F)(F)F)nc3)n2)n1` [Example 414, 2-N-(3-Chloro-4-fluorophenyl)-2-N-methyl-6-{5-[6-(2,2,2-trifluoroethoxy)pyridin-3-yl]-1,2,4-oxadiazol-3-yl}-1,3,5-triazine-2,4-diamine] in this work. An IC50 of 0.567 µM was found for `COc1cccc(-c2nc(-c3nc(N)nc(N(C)c4ccccc4)n3)no2)n1` [Example 415, 6-[5-(6-methoxypyridin-2-yl)-1,2,4-oxadiazol-3-yl]-2-N-methyl-2-N-phenyl-1,3,5-triazine-2,4-diamine] in this work. An IC50 of 1.5 µM was found for `Nc1nc(Nc2ccc(F)c(F)c2)nc(-c2noc(-c3ccc(OCC(F)(F)F)nc3)n2)n1` [Example 416, 2-N-(3,4-difluorophenyl)-6-{5-[6-(2,2,2-trifluoroethoxy)pyridin-3-yl]-1,2,4-oxadiazol-3-yl}-1,3,5-triazine-2,4-diamine] in this work. An IC50 of 0.028 µM was found for `CN(c1nc(N)nc(-c2noc(-c3ccc(OCC(F)(F)F)nc3)n2)n1)c1ccc(F)cc1F` [Example 417, 2-N-(2,4-difluorophenyl)-2-N-methyl-6-{5-[6-(2,2,2-trifluoroethoxy)pyridin-3-yl]-1,2,4-oxadiazol-3-yl}-1,3,5-triazine-2,4-diamine] in this work. An IC50 of 1.64 µM was found for `CN(c1ccccc1)c1nc(N)nc(-c2noc(-c3ccc(Cl)nc3)n2)n1` [Example 418, 6-[5-(6-chloropyridin-3-yl)-1,2,4-oxadiazol-3-yl]-2-N-methyl-2-N-phenyl-1,3,5-triazine-2,4-diamine] in this work. An IC50 of 1.45 µM was found for `CCOc1ncccc1-c1nc(-c2nc(N)nc(N(C)c3ccccc3)n2)no1` [Example 419, 6-[5-(2-ethoxypyridin-3-yl)-1,2,4-oxadiazol-3-yl]-2-N-methyl-2-N-phenyl-1,3,5-triazine-2,4-diamine] in this work. An IC50 of 2.3 µM was found for `CN(c1ccccc1)c1nc(N)nc(-c2noc(-c3ccc(C(F)(F)F)cn3)n2)n1` [Example 420, 2-N-methyl-2-N-phenyl-6-{5-[5-(trifluoromethyl)pyridin-2-yl]-1,2,4-oxadiazol-3-yl}-1,3,5-triazine-2,4-diamine] in this work. An IC50 of 1.43 µM was found for `CN(c1ccccc1)c1nc(N)nc(-c2noc(-c3ccc(S(C)(=O)=O)cc3)n2)n1` [Example 421, 6-[5-(4-methanesulfonylphenyl)-1,2,4-oxadiazol-3-yl]-2-N-methyl-2-N-phenyl-1,3,5-triazine-2,4-diamine] in this work. An IC50 of 9.43 µM was found for `CN(c1ccccc1)c1nc(N)nc(-c2noc(C3CCC(N)CC3)n2)n1` (stereo not drawn) [Example 422, 6-[5-(4-Aminocyclohexyl)-1,2,4-oxadiazol-3-yl]-2-N-methyl-2-N-phenyl-1,3,5-triazine-2,4-diamine] in this work. An IC50 of 0.684 µM was found for `CN(c1ccccc1)c1nc(N)nc(-c2noc(C3CCC(NC(=O)OC(C)(C)C)CC3)n2)n1` (stereo not drawn) [Example 423, tert-butyl N-[4-(3-{4-amino-6-[methyl(phenyl)amino]-1,3,5-triazin-2-yl}-1,2,4-oxadiazol-5-yl)cyclohexyl]carbamate] in this work. An IC50 of 2.81 µM was found for `CN(c1ccccc1)c1nc(N)nc(-c2noc(C3CCC(O)CC3)n2)n1` (stereo not drawn) [Example 424, 4-(3-{4-amino-6-[methyl(phenyl)amino]-1,3,5-triazin-2-yl}-1,2,4-oxadiazol-5-yl)cyclohexan-1-ol] in this work. An IC50 of 2.45 µM was found for `CC(C)C(=O)NC1CCC(c2nc(-c3nc(N)nc(N(C)c4ccccc4)n3)no2)CC1` (stereo not drawn) [Example 425, N-[4-(3-{4-Amino-6-[methyl(phenyl)amino]-1,3,5-triazin-2-yl}-1,2,4-oxadiazol-5-yl)cyclohexyl]-2-methylpropanamide] in this work. An IC50 of 6.68 µM was found for `CN(c1ccccc1)c1nc(N)nc(-c2noc(C3CCC(NC(=O)CC4CC4)CC3)n2)n1` (stereo not drawn) [Example 426, N-[4-(3-{4-amino-6-[methyl(phenyl)amino]-1,3,5-triazin-2-yl}-1,2,4-oxadiazol-5-yl)cyclohexyl]-2-cyclopropylacetamide] in this work. An IC50 of 4.92 µM was found for `CN(c1ccccc1)c1nc(N)nc(-c2noc(C3CCC(NC(=O)CC(F)(F)F)CC3)n2)n1` (stereo not drawn) [Example 427, N-[4-(3-{4-amino-6-[methyl(phenyl)amino]-1,3,5-triazin-2-yl}-1,2,4-oxadiazol-5-yl)cyclohexyl]-3,3,3-trifluoropropanamide] in this work. An IC50 of 5.95 µM was found for `CN(c1ccccc1)c1nc(N)nc(-c2noc(C3CCC(NC(=O)C(F)(F)F)CC3)n2)n1` (stereo not drawn) [Example 428, N-[4-(3-{4-amino-6-[methyl(phenyl)amino]-1,3,5-triazin-2-yl}-1,2,4-oxadiazol-5-yl)cyclohexyl]-2,2,2-trifluoroacetamide] in this work. An IC50 of 0.289 µM was found for `CN(c1ccccc1)c1nc(N)nc(-c2noc(C3CCC(Oc4ccccc4)CC3)n2)n1` (stereo not drawn) [Example 429, 2-N-methyl-6-[5-(4-phenoxycyclohexyl)-1,2,4-oxadiazol-3-yl]-2-N-phenyl-1,3,5-triazine-2,4-diamine] in this work. An IC50 of 0.146 µM was found for `Nc1nc(Nc2ccccc2)nc(-c2noc(-c3ncccc3C(F)(F)F)n2)n1` [Example 430, 2-N-phenyl-6-{5-[3-(trifluoromethyl)pyridin-2-yl]-1,2,4-oxadiazol-3-yl}-1,3,5-triazine-2,4-diamine] in this work. An IC50 of 0.142 µM was found for `Nc1nc(Nc2ccccc2)nc(-c2noc(-c3ncccc3Cl)n2)n1` [Example 431, 6-[5-(3-chloropyridin-2-yl)-1,2,4-oxadiazol-3-yl]-2-N-phenyl-1,3,5-triazine-2,4-diamine] in this work. An IC50 of 6.29 µM was found for `CN(c1ccc(F)nc1)c1nc(N)nc(-c2noc(-c3ccc(OCC(F)(F)F)nc3)n2)n1` [Example 432, 2-N-(6-Fluoropyridin-3-yl)-2-N-methyl-6-{5-[6-(2,2,2-trifluoroethoxy)pyridin-3-yl]-1,2,4-oxadiazol-3-yl}-1,3,5-triazine-2,4-diamine] in this work. An IC50 of 0.161 µM was found for `CN(c1ccccc1)c1nc(N)nc(-c2noc(N3CC[C@H](Oc4ccccc4)C3)n2)n1` [Example 433, 2-N-methyl-6-{5-[(3S)-3-phenoxypyrrolidin-1-yl]-1,2,4-oxadiazol-3-yl}-2-N-phenyl-1,3,5-triazine-2,4-diamine] in this work. An IC50 of 0.14 µM was found for `CN(c1ccccc1)c1nc(N)nc(-c2noc(N3CC[C@@H](Oc4ccccc4)C3)n2)n1` [Example 434, 2-N-methyl-6-{5-[(3R)-3-phenoxypyrrolidin-1-yl]-1,2,4-oxadiazol-3-yl}-2-N-phenyl-1,3,5-triazine-2,4-diamine] in this work. An IC50 of 0.171 µM was found for `COCCN(c1ccccc1)c1nc(N)nc(-c2noc(N3CC(Oc4ccccc4)C3)n2)n1` [Example 436, 2-N-(2-Methoxyethyl)-6-[5-(3-phenoxyazetidin-1-yl)-1,2,4-oxadiazol-3-yl]-2-N-phenyl-1,3,5-triazine-2,4-diamine] in this work. An IC50 of 0.167 µM was found for `COCCN(c1ccccc1)c1nc(N)nc(-c2noc(-c3c(F)cccc3OC)n2)n1` [Example 437, 6-[5-(2-fluoro-6-methoxyphenyl)-1,2,4-oxadiazol-3-yl]-2-N-(2-methoxyethyl)-2-N-phenyl-1,3,5-triazine-2,4-diamine] in this work. An IC50 of 2.09 µM was found for `CN(c1ccccc1)c1nc(N)nc(-c2noc([C@@H]3CCCN3)n2)n1` [Example 438, 2-N-methyl-2-N-phenyl-6-{5-[(2S)-pyrrolidin-2-yl]-1,2,4-oxadiazol-3-yl}-1,3,5-triazine-2,4-diamine hydrochloride] in this work. An IC50 of 4.06 µM was found for `CN(c1ccccc1)c1nc(N)nc(-c2noc([C@H]3CCCN3)n2)n1` [Example 439, 2-N-methyl-2-N-phenyl-6-{5-[(2R)-pyrrolidin-2-yl]-1,2,4-oxadiazol-3-yl}-1,3,5-triazine-2,4-diamine hydrochloride] in this work. An IC50 of 1.3 µM was found for `CN(c1ccccc1)c1nc(N)nc(-c2noc([C@@H]3CCCN3C(=O)OC(C)(C)C)n2)n1` [Example 440, tert-butyl (2S)-2-(3-{4-amino-6-[methyl(phenyl)amino]-1,3,5-triazin-2-yl}-1,2,4-oxadiazol-5-yl)pyrrolidine-1-carboxylate] in this work. An IC50 of 1.45 µM was found for `CN(c1ccccc1)c1nc(N)nc(-c2noc([C@@H]3CCCN3CCC(F)(F)F)n2)n1` [Example 441, 2-N-Methyl-2-N-phenyl-6-{5-[(2S)-1-(3,3,3-trifluoropropyl)pyrrolidin-2-yl]-1,2,4-oxadiazol-3-yl}-1,3,5-triazine-2,4-diamine] in this work. An IC50 of 7.18 µM was found for `CN(c1ccccc1)c1nc(N)nc(-c2noc([C@H]3CCCN3CCC(F)(F)F)n2)n1` [Example 442, 2-N-methyl-2-N-phenyl-6-{5-[(2R)-1-(3,3,3-trifluoropropyl)pyrrolidin-2-yl]-1,2,4-oxadiazol-3-yl}-1,3,5-triazine-2,4-diamine] in this work. An IC50 of 7.29 µM was found for `CN(c1ccccc1)c1nc(N)nc(-c2noc(N3CC[C@@H](OCC(F)(F)F)C3)n2)n1` [Example 443, 2-N-methyl-2-N-phenyl-6-{5-[(3R)-3-(2,2,2-trifluoroethoxy)pyrrolidin-1-yl]-1,2,4-oxadiazol-3-yl}-1,3,5-triazine-2,4-diamine] in this work. An IC50 of 8 µM was found for `COC[C@H]1CCCN1c1nc(-c2nc(N)nc(N(C)c3ccccc3)n2)no1` [Example 444, 6-{5-[(2R)-2-(methoxymethyl)pyrrolidin-1-yl]-1,2,4-oxadiazol-3-yl}-2-N-methyl-2-N-phenyl-1,3,5-triazine-2,4-diamine] in this work. An IC50 of 3.3 µM was found for `CN(c1ccccc1)c1nc(N)nc(-c2noc(N3CC[C@H](OCC(F)(F)F)C3)n2)n1` [Example 445, 2-N-methyl-2-N-phenyl-6-{5-[(3S)-3-(2,2,2-trifluoroethoxy)pyrrolidin-1-yl]-1,2,4-oxadiazol-3-yl}-1,3,5-triazine-2,4-diamine] in this work. An IC50 of 3.62 µM was found for `COC[C@@H]1CCCN1c1nc(-c2nc(N)nc(N(C)c3ccccc3)n2)no1` [Example 446, 6-{5-[(2S)-2-(methoxymethyl)pyrrolidin-1-yl]-1,2,4-oxadiazol-3-yl}-2-N-methyl-2-N-phenyl-1,3,5-triazine-2,4-diamine] in this work.
